Tests used:
[1] = tested on: primary mouse dermal fibroblasts; assay: Dermal fibroblast proliferation in vitro, BrdU labeling assay; format: cell-based, C57BL/6 mouse; settings: 24 hours; for BrdU/Vimentin Labeling Index (%): 50 nM peptide in 1% FBS medium, BrdU 2 hours
Protocol: Full-thickness skin tissue was obtained from the dorsum of C57BL/6 mouse. The subcutaneous tissue was carefully dissected from the skin and washed three times in sterile phosphate-buffered saline (PBS). The tissue was then cut into small pieces (1-2 mm^3). After being digested with 0.1% dispase at 4° C. overnight, the epidermal layers were removed, and the remaining dermal parts were further digested with 0.1% collagenase I at 37° C. for another 4 hours. The digested cells were then collected by centrifugation (400 g for 5 minutes) and resuspended in high-glucose DMEM supplemented with 10% FBS, 2 mM L-glutamine, and 1% penicillin-streptomycin antibiotic mixture. Cells were seeded onto tissue-culture plates (Falcon Labware; NJ, USA) at 1×10^3 cells/cm^2 and maintained at 37° C. with 5% CO2. After 24 hours, the medium was discarded to remove residual non-adherent cells, and cell culture was replenished with a fresh medium. For passage, near-confluent cells were harvested with 0.25% trypsin/EDTA.
After fixing with 4% paraformaldehyde, cells were exposed to cold methanol for 2 minutes, and then treated with 1 N HCl at room temperature for 1 hour before performing immunofluorescence staining.
BrdU-labeled DNA was detected by polyclonal anti-BrdU antibody and rhodamine-conjugated donkey anti-rabbit IgG. Nuclei were counterstained with Hoechst 33258 (blue).
Primary mouse dermal fibroblasts were isolated and cultured as described in the “Materials and Methods” section. The dermal fibroblast at passage 2 were seeded at gelatin-coated slide in a 6-well plate at a density of 2×10^5 cells per well and cultured in growth medium (DMEM 10% FBS) for 24 hours before being replaced by a basal growth medium with 1% FBS only (control group) or with 1% FBS plus an additional 50 nM of PEDF-derived peptide (i.e., 29-mer, 24-mer, 20-mer, 18-mer, Mo 29-mer, or Mo 20-mer) for 24 hours. For BrdU labeling assay, BrdU (final concentration, 10 μM) was added to the culture for 2 hours. The level of BrdU- and vimentin-double positive cells was expressed as the percentage of BrdU- and vimentin-double positive cells per total vimentin-positive cells (the BrdU/Vimentin Labeling Index), and the results were summarized in Table 2.

type I collagen (COL1A1) = assay: COL1A1 level in UVB-damaged mouse skin by immunoblot; format: in vivo, nude mice; settings: 8-week UVB, then ointment plus microneedle for 2 weeks; untreated normal group set to 100%
Protocol: Skin tissues were homogenized in ice-cold lysis buffer containing 20 mM HEPES (pH 7.4), 150 mM NaCl, 1% SDS, 1 mM ethylenediamine tetraacetic acid (EDTA), 5 mM phenylmethanesulfonyl fluoride (PMSF), and 1 mM dithiothreitol (DTT), 1% Triton X-100, with freshly added protease inhibitor cocktail (Roche, Indianapolis, Ind.). Homogenates were then centrifuged at 12,000 g for 30 minutes at 4° C., and supernatants were then collected and stored at −70° C. Protein contents in lysates were determined using the Bradford assay. Whole cell lysates were prepared using the above lysis buffer. Aliquots of the lysates were then resolved on a SDS-PAGE and then electrotransferred to polyvinylidene difluoride (PVDF) membranes (Millipore, Bedford, Mass., USA) and processed for immunoblot analysis.
Antibodies used in the immunoblot study included anti-type I collagen 1A1 antibody (1:1000 dilution), anti-MMP-1 antibody (1:500 dilution) and anti-β-actin antibody (1:10000 dilution). Proteins of interest were detected using the appropriate IgG-HRP secondary antibody and ECL reagent (Amersham, Arlington Heights, Ill., USA). X-ray films were scanned on a Model GS-700 Imaging Densitometer (Bio-Rad Laboratories, Hercules, Calif.) and analyzed using Labworks 4.0 software. For quantification, blots from at least three independent experiments were used.
Six-week-old female nude mice (BALB/cAnN.Cg-Foxn1nu/CrlNarl) were irradiated with ultraviolet B (UVB) on the back 5 times a week for an eight-week period using a bank of five UVB lamps (model XL-1000B, Spectrolinker™ apparatus; emission peak: 312 nm), placed about 20 cm above the backs of the animals. During the UVB exposure, the mice were allowed to move freely within the cage. […] The level of BrdU- and vimentin-double positive cells was expressed as the percentage of BrdU- and vimentin-double positive cells per total vimentin-positive cells (the BrdU/Vimentin Labeling Index). […]

Ac-SLGAEQRTESIIHRALYYDLISSPDIHGT-NH2 [29-mer]
BrdU/Vimentin Labeling Index (%) [1]: 9.6 ± 1.6 %
proliferation relative to control medium ([1]; 50 nM peptide): about 5 fold
COL1A1 Level (%) (type I collagen (COL1A1)): 91.0 ± 5.0 %

SLGAEQRTESIIHRALYYDL [20-mer, synthetic peptide corresponding to residues 93-112 of human PEDF]
BrdU/Vimentin Labeling Index (%) [1]: 10.4 ± 2.3 %
proliferation relative to control medium ([1]; 50 nM peptide): about 5 fold
COL1A1 Level (%) (type I collagen (COL1A1)): 92.3 ± 9.1 %

EQRTESIIHRALYYDLIS [18-mer]
BrdU/Vimentin Labeling Index (%) [1]: 2.1 ± 0.61%
effect on dermal fibroblast proliferation in vitro ([1]; 50 nM peptide): failed to elicit such effect
COL1A1 Level (%) (type I collagen (COL1A1)): 45.0 ± 3.8%
